According to PMC7316778 (Nature Communications, 2020):
pIC50: −log10 of the molar value. Where “and” joins values, the source holds several entries; their conditions need not be identical. Equal entries are not always repeated. Where two headings read alike, the source gives them in different places.

Columns and labels:
PAK2 (PAK65) = PAK2 (PAK65) (Homo sapiens, UniProt Q13177); assay: SelectScreen kinase assay
Experimental: (§1) Selectivity profiling assays were performed by the Invitrogen SelectScreen™ Services. […] The concentration of ATP was selected to be equal to the KM, unless indicated otherwise.

PI4K2B (PI4K2 beta) = PI4K2B (PI4K2 beta) (Homo sapiens, UniProt Q8TCG2); assay: SelectScreen kinase assay; details: for Inhibition at 1 µM (%): PI4K2B (PI4K2 beta), Adapta, ATP 10
Experimental: as §1

BTK = BTK (Homo sapiens, UniProt Q06187); assay: SelectScreen kinase assay
Experimental: as §1

CHUK (IKK alpha) = CHUK (IKK alpha) (Homo sapiens, UniProt O15111); assay: SelectScreen kinase assay
Experimental: as §1

MAPK3 (ERK1) = MAPK3 (ERK1) (Homo sapiens, UniProt P27361); assay: SelectScreen kinase assay
Experimental: as §1

MAP3K3 (MEKK3) = MAP3K3 (MEKK3) (Homo sapiens, UniProt Q99759); assay: SelectScreen kinase assay
Experimental: as §1

TTK = target: T1, TTK (Homo sapiens, UniProt P33981); assay: SelectScreen kinase assay
T1 sequence (P33981 1-857): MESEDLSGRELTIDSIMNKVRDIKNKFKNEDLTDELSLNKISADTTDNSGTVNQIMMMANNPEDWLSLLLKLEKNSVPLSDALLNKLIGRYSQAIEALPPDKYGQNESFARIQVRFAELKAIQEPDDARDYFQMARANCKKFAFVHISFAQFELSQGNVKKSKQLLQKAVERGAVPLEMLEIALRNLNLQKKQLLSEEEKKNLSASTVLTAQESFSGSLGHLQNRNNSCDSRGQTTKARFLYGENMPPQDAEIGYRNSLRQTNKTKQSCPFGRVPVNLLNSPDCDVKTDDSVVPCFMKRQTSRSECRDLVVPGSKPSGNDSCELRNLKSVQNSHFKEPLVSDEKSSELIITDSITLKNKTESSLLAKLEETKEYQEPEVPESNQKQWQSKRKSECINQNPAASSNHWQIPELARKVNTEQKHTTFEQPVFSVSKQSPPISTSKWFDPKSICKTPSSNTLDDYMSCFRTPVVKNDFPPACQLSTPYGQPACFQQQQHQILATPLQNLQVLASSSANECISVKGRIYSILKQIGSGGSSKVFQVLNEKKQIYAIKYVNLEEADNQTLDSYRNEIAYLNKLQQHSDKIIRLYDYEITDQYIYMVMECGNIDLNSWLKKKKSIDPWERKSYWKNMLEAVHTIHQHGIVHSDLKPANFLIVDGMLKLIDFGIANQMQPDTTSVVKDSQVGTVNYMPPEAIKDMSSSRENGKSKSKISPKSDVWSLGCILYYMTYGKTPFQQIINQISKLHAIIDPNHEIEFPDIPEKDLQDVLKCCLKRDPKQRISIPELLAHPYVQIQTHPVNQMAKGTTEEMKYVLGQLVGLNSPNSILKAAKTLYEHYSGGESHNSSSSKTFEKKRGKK
Experimental: as §1

MET (cMet) = MET (cMet) (Homo sapiens, UniProt P08581); assay: SelectScreen kinase assay
Experimental: as §1

IGF1R = IGF1R (Homo sapiens, UniProt P08069); assay: SelectScreen kinase assay
Experimental: as §1

MYLK4 = target: T2, MYLK4 (Homo sapiens, UniProt Q86YV6); assay: SelectScreen kinase assay
T2 sequence (Q86YV6 1-388): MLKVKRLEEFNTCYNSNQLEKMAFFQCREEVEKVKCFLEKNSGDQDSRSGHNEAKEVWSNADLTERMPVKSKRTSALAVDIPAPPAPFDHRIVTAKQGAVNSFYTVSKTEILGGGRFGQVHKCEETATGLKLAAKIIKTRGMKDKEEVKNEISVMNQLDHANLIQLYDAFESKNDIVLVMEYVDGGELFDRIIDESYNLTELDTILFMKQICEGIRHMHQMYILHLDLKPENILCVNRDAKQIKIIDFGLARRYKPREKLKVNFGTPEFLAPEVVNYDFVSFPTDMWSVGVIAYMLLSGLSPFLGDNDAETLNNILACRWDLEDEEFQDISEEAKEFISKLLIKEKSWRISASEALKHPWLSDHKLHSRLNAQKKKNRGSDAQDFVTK
Experimental: as §1

FES^S700C HL-60 cells = assay: Morphological inspection after PMA-induced differentiation; type: cell-based, human
Experimental: One day prior to induction of differentiation, cells were diluted to 0.4 × 10^6 cells/mL. […] Neutrophil differentiation was induced by addition of all-trans-retinoic acid (1 µM) and dimethylsulfoxide (1.25%) for 72–96 h. For morphological inspection, images were taken on an EVOS FL Auto 2 Imaging System (Thermo Fisher) at ×20 magnification.
Supplementary Figure 10. Analysis of putative sgRNA off-target site. Analysis of the only predicted coding off-target of the sgRNA target sequence employed for FESS700C mutagenesis, located in the TTC16 gene. Genomic region surrounding putative off-target site was amplified by PCR, followed by Sanger sequencing analysis. No off-target gene editing events were observed.
Supplementary Figure 11. Morphological inspection of WT and FESS700C HL-60 cells after PMA-induced differentiation towards macrophages. Cells were treated with vehicle or indicated concentrations of WEL028 during PMA-induced differentiation toward macrophages. Wild-type and […]
are representative for multiple acquired images at 20x magnification from replicates (n = 3).
(also on this page, place not known: off -target off -target FES S700C PMA -induced W ild-type PAM Predicted TTC16 (NM_144965) HL-60 WT HL-60 125 μm Non-differentiated PMA (16 nM, 48 h) HL-60 WTHL-60 FESS700C Vehicle Vehicle WEL028 (100 nM) WEL028 (1 µM))

CSNK2A2 (CK2 alpha 2) = CSNK2A2 (CK2 alpha 2) (Homo sapiens, UniProt P19784); assay: SelectScreen kinase assay
Experimental: as §1

NEK9 = NEK9 (Homo sapiens, UniProt Q8TD19); assay: SelectScreen kinase assay
Experimental: as §1

[1] = 1 h, 1 μM WEL028, 1 h preincubation

Chain of MAPK3 (ERK1) (P27361 whole entry): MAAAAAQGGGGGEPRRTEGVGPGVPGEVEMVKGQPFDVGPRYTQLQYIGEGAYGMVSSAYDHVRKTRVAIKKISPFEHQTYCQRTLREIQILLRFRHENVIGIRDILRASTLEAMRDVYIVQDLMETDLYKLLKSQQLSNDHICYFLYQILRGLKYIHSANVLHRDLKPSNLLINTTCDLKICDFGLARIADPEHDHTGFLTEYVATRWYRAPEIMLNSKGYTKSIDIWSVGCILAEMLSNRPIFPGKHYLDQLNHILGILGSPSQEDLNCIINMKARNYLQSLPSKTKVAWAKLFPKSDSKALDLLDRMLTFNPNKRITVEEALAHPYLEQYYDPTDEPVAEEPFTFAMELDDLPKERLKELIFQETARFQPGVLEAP
Chain of PI4K2B (PI4K2 beta) (Q8TCG2 whole entry): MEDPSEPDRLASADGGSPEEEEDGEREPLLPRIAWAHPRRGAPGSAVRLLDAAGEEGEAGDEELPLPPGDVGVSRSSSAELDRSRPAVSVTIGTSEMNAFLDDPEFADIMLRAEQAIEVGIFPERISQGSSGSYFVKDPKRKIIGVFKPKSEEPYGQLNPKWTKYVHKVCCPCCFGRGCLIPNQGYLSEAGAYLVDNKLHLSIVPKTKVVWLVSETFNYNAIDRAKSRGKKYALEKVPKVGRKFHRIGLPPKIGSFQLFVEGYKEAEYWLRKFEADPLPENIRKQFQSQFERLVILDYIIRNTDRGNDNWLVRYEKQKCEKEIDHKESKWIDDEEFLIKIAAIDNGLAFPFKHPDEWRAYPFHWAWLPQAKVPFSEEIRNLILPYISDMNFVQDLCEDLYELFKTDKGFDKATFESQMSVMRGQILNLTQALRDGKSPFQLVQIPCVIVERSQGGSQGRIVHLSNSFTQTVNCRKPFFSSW
Chain of PAK2 (PAK65) (Q13177 whole entry): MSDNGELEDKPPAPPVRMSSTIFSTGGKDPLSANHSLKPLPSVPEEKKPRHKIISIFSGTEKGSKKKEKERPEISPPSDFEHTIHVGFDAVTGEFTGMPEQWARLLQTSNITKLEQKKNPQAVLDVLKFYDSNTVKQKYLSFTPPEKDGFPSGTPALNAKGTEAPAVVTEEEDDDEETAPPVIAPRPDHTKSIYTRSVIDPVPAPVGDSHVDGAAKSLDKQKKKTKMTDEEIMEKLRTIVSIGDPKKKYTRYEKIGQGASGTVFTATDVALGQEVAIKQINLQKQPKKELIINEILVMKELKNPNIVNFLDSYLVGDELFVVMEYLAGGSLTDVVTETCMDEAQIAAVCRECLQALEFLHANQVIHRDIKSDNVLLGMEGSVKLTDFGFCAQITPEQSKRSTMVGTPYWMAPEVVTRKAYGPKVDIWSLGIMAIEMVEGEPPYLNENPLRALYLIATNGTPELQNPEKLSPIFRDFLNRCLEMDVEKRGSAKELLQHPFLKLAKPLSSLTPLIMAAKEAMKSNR
Chain of NEK9 (Q8TD19 whole entry): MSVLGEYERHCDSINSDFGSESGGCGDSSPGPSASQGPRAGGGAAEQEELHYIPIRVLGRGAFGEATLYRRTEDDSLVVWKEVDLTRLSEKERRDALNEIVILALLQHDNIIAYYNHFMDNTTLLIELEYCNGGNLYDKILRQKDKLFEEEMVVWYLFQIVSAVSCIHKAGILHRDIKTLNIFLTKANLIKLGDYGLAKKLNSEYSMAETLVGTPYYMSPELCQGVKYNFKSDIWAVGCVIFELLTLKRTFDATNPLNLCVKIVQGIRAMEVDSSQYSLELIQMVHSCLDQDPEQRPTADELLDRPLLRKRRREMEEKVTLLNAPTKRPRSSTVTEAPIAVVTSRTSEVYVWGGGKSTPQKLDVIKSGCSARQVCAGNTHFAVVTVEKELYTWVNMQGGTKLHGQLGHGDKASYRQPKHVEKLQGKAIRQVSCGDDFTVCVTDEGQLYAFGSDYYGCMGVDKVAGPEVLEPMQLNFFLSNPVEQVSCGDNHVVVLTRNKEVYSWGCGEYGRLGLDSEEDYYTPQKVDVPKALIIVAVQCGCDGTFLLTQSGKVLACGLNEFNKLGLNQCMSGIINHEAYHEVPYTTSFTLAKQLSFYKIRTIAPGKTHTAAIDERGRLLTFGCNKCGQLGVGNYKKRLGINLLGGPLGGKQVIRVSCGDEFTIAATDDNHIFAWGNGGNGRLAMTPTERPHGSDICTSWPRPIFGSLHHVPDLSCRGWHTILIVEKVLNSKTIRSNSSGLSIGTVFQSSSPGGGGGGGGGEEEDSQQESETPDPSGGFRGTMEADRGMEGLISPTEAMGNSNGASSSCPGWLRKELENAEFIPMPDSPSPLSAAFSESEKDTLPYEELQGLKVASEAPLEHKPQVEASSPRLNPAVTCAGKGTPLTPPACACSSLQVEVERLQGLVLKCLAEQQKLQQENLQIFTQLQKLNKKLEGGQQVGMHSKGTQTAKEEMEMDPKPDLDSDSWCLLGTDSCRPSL
Chain of MET (cMet) (P08581 25-1390): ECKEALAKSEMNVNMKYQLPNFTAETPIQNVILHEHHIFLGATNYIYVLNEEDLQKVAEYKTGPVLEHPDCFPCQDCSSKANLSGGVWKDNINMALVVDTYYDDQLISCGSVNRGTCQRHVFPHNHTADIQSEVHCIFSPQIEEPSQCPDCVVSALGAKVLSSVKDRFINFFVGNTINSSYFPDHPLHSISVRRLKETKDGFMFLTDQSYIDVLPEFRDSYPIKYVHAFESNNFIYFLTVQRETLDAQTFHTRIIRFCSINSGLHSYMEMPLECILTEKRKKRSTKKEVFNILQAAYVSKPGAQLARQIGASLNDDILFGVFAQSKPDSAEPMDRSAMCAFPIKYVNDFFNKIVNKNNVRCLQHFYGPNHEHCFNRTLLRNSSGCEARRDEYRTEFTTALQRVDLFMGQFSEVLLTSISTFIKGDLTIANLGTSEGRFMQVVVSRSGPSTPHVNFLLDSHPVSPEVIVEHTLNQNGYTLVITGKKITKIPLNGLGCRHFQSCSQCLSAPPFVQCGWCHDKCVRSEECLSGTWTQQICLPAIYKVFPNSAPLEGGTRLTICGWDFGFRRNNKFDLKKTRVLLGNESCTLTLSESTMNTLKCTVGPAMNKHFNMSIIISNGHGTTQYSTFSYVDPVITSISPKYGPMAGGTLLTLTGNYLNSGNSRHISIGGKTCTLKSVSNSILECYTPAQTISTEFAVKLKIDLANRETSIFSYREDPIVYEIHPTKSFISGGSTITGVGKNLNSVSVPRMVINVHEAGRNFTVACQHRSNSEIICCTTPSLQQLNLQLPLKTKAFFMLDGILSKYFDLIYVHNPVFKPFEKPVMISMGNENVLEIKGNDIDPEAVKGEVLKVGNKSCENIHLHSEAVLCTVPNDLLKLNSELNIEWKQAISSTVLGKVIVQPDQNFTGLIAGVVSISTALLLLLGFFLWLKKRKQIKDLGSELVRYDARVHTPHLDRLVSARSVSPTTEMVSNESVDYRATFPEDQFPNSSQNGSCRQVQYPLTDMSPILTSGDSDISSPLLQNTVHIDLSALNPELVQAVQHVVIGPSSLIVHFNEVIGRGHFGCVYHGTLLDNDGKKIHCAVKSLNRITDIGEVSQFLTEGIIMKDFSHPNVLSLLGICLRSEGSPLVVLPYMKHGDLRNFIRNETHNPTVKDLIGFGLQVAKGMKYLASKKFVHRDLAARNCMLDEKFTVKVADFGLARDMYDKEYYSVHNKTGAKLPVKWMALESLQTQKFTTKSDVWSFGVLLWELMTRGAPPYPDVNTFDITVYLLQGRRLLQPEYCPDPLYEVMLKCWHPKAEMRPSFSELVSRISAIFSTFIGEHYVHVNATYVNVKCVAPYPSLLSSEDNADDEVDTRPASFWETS
Chain of CHUK (IKK alpha) (O15111 whole entry): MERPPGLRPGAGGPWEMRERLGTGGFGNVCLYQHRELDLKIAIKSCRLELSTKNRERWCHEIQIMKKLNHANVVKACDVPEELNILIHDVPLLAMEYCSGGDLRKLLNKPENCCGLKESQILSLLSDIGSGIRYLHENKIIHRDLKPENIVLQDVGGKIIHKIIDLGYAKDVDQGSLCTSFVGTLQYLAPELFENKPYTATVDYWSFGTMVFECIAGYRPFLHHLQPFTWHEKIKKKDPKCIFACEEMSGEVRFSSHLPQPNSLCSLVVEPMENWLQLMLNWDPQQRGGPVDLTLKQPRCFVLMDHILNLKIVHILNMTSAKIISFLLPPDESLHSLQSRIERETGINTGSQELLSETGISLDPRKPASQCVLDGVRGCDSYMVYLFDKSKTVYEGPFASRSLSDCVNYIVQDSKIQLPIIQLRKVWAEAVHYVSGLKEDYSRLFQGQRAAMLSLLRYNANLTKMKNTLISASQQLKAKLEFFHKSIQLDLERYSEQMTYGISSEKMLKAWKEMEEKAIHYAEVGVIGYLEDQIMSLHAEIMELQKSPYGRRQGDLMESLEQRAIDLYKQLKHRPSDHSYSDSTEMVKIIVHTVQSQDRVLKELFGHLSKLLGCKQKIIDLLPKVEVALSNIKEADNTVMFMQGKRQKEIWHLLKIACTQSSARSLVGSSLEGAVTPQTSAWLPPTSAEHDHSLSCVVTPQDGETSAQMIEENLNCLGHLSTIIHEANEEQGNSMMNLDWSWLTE
Chain of CSNK2A2 (CK2 alpha 2) (P19784 whole entry): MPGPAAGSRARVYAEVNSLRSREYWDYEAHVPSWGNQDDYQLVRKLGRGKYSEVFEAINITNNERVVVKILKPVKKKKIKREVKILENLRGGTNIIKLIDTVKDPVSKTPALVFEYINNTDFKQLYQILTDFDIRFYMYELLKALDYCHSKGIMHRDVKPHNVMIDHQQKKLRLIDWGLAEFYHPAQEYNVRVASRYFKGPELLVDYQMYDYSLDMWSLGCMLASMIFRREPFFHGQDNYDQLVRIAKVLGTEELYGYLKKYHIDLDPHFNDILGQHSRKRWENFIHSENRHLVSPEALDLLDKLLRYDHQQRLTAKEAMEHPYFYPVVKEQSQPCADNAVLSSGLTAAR

With `C#CCOc1ccc(Nc2ncc(Cl)c(Nc3ccccc3NC(=O)C=C)n2)c(OC)c1` [Compound 6] the inhibition at 1 µM (PAK2 (PAK65); [1]) was 29%, the “Inhibition at 1 µM (%)” value (PAK2 (PAK65); PAK2 (PAK65), 1 µM, ZLYTE, ATP Km app, listed as WEL028, 1 µM) was 23% and the inhibition at 1 µM (PAK2 (PAK65); read-out: Inhibition at 1 µM (%), PAK2 (PAK65), 1 µM, ZLYTE, ATP Km app) was 35%. The inhibition at 1 µM (PI4K2B (PI4K2 beta); [1]) was 2%, the “Inhibition at 1 µM (%)” value (PI4K2B (PI4K2 beta)) was 3% and the “Inhibition at 1 µM (%)” value (PI4K2B (PI4K2 beta); listed as WEL028, 1 µM) was 0%. The “Inhibition (%)” value (BTK; 1 μM WEL028, 1 h preincubation) was 11%, the “Inhibition at 1 µM (%)” value (BTK; BTK, 1 µM, ZLYTE, ATP Km app) was 17% and the inhibition at 1 µM (CHUK (IKK alpha); [1]) was 7%. The “Inhibition at 1 µM (%)” value (CHUK (IKK alpha); CHUK (IKK alpha), 1 µM, Adapta, ATP Km app, listed as WEL028, 1 µM) was 12% and 3%, the inhibition at 1 µM (MAPK3 (ERK1); [1]) was 19% and the “Inhibition at 1 µM (%)” value (MAPK3 (ERK1); MAPK3 (ERK1), 1 µM, ZLYTE, ATP Km app, listed as WEL028, 1 µM) was 14%. The inhibition at 1 µM (MAPK3 (ERK1); read-out: Inhibition at 1 µM (%), MAPK3 (ERK1), 1 µM, ZLYTE, ATP Km app) was 23%, the inhibition at 1 µM (MAP3K3 (MEKK3); [1]) was 7% and the inhibition at 1 µM (MAP3K3 (MEKK3); read-out: Inhibition at 1 µM (%), MAP3K3 (MEKK3), 1 µM, LanthaScreen Binding) was 8%. The pIC50 (TTK) was 6.20, the “Inhibition at 1 µM (%)” value (TTK; 1 µM, LanthaScreen Binding, listed as WEL028, 1 µM) was 76% and the inhibition at 1 µM (TTK; [1]) was 77%. The Apparent fold selectivity (TTK; IC50 on that kinase divided by IC50 on FES^S700C) was 152 fold, the inhibition at 1 µM (TTK; read-out: Inhibition at 1 µM (%), 1 µM, LanthaScreen Binding) was 77% and the “Inhibition (%)” value (MET (cMet); 1 μM WEL028, 1 h preincubation) was -4%. The “Inhibition at 1 µM (%)” value (MET (cMet); MET (cMet), 1 µM, ZLYTE, ATP Km app, listed as WEL028, 1 µM) was 0% and -9%, the inhibition at 1 µM (IGF1R; [1]) was 15% and the inhibition at 1 µM (IGF1R; read-out: Inhibition at 1 µM (%), IGF1R, 1 µM, ZLYTE, ATP Km app) was 14%. For the same compound, the inhibition at 1 µM (MYLK4; [1]) was 10%, the “Inhibition at 1 µM (%)” value (MYLK4; MYLK4, 1 µM, LanthaScreen Binding, listed as WEL028, 1 µM) was 14% and the inhibition at 1 µM (MYLK4; read-out: Inhibition at 1 µM (%), MYLK4, 1 µM, LanthaScreen Binding) was 7%. The Morphology (FES^S700C HL-60 cells; 100 nM WEL028) was “macrophage morphology”, the Morphology (FES^S700C HL-60 cells; 1 µM WEL028) was “morphology is similar to non-differentiated cells” and the inhibition at 1 µM (CSNK2A2 (CK2 alpha 2); 1 h) was 6%. For the same compound, the inhibition at 1 µM (CSNK2A2 (CK2 alpha 2); read-out: Inhibition at 1 µM (%)) was 6%, the inhibition at 1 µM (NEK9; [1]) was -8% and the “Inhibition at 1 µM (%)” value (NEK9; NEK9, 1 µM, ZLYTE, ATP Km app, listed as WEL028, 1 µM) was -7% and -9%.
